Patent US10717968B2, “Polymerases for nucleotide analogue incorporation” (Pacific Biosciences of California, Inc., priority 2005, dated 2020)

Key:
Format in all cases: biochemical
[1] = tested on: A633dC4P; assay: Screening: rate with A633dC4P and dA, dG, dTTP; details: for Rate High: 25 μM A633dC4P with 20 μM dA; for Ratio (Low/High): (rate at 5 μM A633dC4P)/(rate at 25 μM A633dC4P), each with 20 μM dA, 1 mM MnCl2, higher ratio = lower Km
[2] = tested on: Alexa488-O-dA4P, FAM-Alexa532-O-dG4P, FAM-Alexa594-O-dT4P, Alexa633-O-dC4P; assay: Screening: rate with set of four nucleotide analogues; details: four analogues at 10 μM each, 1 mM MnCl2
[3] = tested on: natural (native) nucleotides; assay: Initial characterization: specific activity with natural (native) nucleotides
Description: The recombinant polymerase is initially evaluated on the quality of the protein preparation and basic catalytic activity. The polymerase's activity is analyzed with natural (native) nucleotides, and its specific activity (units/mg) is determined. Only catalytically competent mutants are selected for the next steps.

[4] = tested on: dTTP, dATP, dGTP; assay: Assay with three native nucleotides (dGTP, dTTP and dATP); details: three native nucleotides at 20 μM; circular template, no G residues
Description: (§1) The Φ29 DNA polymerase (parental enzyme or mutant) was preincubated with DNA template (72 nucleotide circular DNA including mostly repetitive sequence AGTC) with annealed DNA primer. The preincubation mix includes three native nucleotides (dTTP, dATP and dGTP) and a terminal labeled nucleotide analogue (A488dC4P or A568dC4P) at 10 μM concentration. After a short preincubation, the reaction was started with MnCl2. The reaction was stopped with EDTA, and the products were separated using agarose gel electrophoresis and stained with SYBR Gold (Invitrogen). The average length of the DNA generated with DNA polymerase was determined and used to estimate the polymerization rate. See, e.g., Table 2 Columns G and H.
The Φ29 DNA polymerase (parental enzyme or mutant) was preincubated with DNA template (circular DNA including mostly repetitive sequence CAT, no G residues) with annealed DNA primer; the preincubation mix includes three native nucleotides (dTTP, dATP and dGTP). All subsequent steps were basically as described above in the section entitled “Assay with a single analogue at low concentration (10 μM) and three native nucleotides.” See, e.g., Table 2 Column B.

[5] = tested on: A488dC4P; assay: Nucleotide analogue concentration dependence of the polymerization rate, A488dC4P; details: circular AGTC template; dTTP, dATP, dGTP 20 μM each
Description: (§2) The most promising polymerase mutants are characterized by determination of the polymerization rate and Km for A488dC4P and A568dC4P and a subset of natural nucleotides (dATP, dGTP and dTTP), using a circular template (AGTC). Velocity is measured at several different concentrations of the analogs, A488dC4P (a representative good substrate) and A568dC4P (a representative less preferred substrate).
(§3) The Φ29 DNA polymerase (parental enzyme or mutant) was preincubated with a DNA template (72 nucleotide circular DNA including mostly repetitive sequence AGTC) with annealed DNA primer. The preincubation mix includes also three native nucleotides (dTTP, dATP and dGTP 20 μM each) and various concentrations of the terminally labeled analogue (A488dC4P or A568dC4P). All subsequent steps were basically as described above in the section entitled “Assay with a single analogue at low concentration (10 μM) and three native nucleotides.” An average length of the DNA products generated with DNA polymerase at an individual analogue concentration was determined, and the results were fitted with the equation k=kel*[S]*(Kd+[S])^−1 where k is the observed polymerization rate, kel is the polymerization rate at saturating substrate concentration (kel measures incorporation of multiple residues), and [S] is substrate concentration. See, e.g., Table 2 Columns C, D, E, and F.

[6] = tested on: A488dC4P; assay: Assay with a single analogue at low concentration (10 μM) and three native nucleotides, A488dC4P; details: single analogue at 10 μM and three native nucleotides
Description: as §1

[7] = tested on: A568dC4P; assay: Assay with a single analogue at low concentration (10 μM) and three native nucleotides, A568dC4P; details: single analogue at 10 μM and three native nucleotides
Description: as §1

[8] = tested on: A488dA4P, A633dC4P, A546dG4P, A594dT4P; assay: Assay with four terminally labeled nucleotide analogs; details: four terminally labeled analogs all at 10 μM
Description: Polymerization rate (bases/min) with four analogues at 10 μM (A488dA4P, A633dC4P, A546dG4P and A594dT4P) and circular template (AGTC, a 72mer circular template largely consisting of a repeating AGTC motif) is determined.
The procedure is basically as described above in the section entitled “Assay with a single analogue at low concentration (10 μM) and three native nucleotides,” with the exception that in this assay all nucleotides are terminally labeled (A488dA4P, A633dC4P, A546dG4P, A594dT4P all at 10 μM). See, e.g., Table 2 Column I.

[9] = tested on: DNA template (72 nucleotide circular DNA) with annealed DNA primer; assay: Processivity assay; details: dNTP, MnCl2, heparin trap, 20 min; 1.0 minus Poff
Text: The processivity (dissociation/kb) of the polymerase is estimated in a primer extension reaction performed in the presence of “Trap” (unlabeled competitor DNA or heparin). The processivity assay is designed to select mutants that retain the capability to synthesize a long DNA product in a continuous polymerization run (without polymerization reinitiation) with natural nucleotides. Mutants with a significant decrease in processivity are not selected for the next step.
The Φ29 DNA polymerase (parental enzyme or mutant) was preincubated with DNA template (72 nucleotide circular DNA including mostly repetitive sequence AGTC) with annealed DNA primer. After a short preincubation, the reaction was started with a starting mix including MnCl2, dNTP and heparin. Including the heparin in the reaction prevents polymerization from reinitiating after the polymerase dissociates from the template/primer, so that all generated DNA products are a result of continuous polymerization runs. After 20 min incubation, the reaction was stopped with EDTA and the products were separated using agarose gel electrophoresis and stained with SYBR Gold (Invitrogen). The DNA products were analyzed basically as described in Bibillo A, Eickbush T H. J Biol Chem. 2002 Sep. 20; 277(38):34836-45, Epub 2002 Jul. 5. The results were fitted with single exponential equation A*exp(−Poff*kb) where A is amplitude, Poff is the probability of premature polymerase dissociation, and kb is DNA length (1000 nucleotides). The probability of chain elongation (processivity) can be readily calculated by subtracting the Poff value from 1.0. See, e.g., Table 2 Column J.

[10] = tested on: A568dC4P; assay: Nucleotide analogue concentration dependence of the polymerization rate, A568dC4P; details: circular AGTC template; dTTP, dATP, dGTP 20 μM each
Description: as §2, §3

Substance | Rate High [1] | Ratio (Low/High) [1] | Hz Rate [2] [Hz] | Specific Activity [3] | dTTP, dATP, dGTP (no G fork) V at 20 μM [4] | A488dC4P, kel [5] [bp/min] | Km [5] [µM] | A488dC4P, V at 10 μM [6] | A568dC4P, V at 10 μM [7] | A488dA4P, A633dC4P, A546dG4P, A594dT4P, V at 10 μM [8] | Processivity [9] [kb^−1] | A568dC4P, kel [10] | Km [10] [µM]
D12A: GST-His tagged Phi29 polymerase with exonuclease-reducing D12A mutation, no background mutation [reference compound] | 55.3 | 0.888 | 1.2 |  |  |  |  |  |  |  |  |  | 
His-NipTuck_1-N62D: His-tagged N62D Phi 29 polymerase with deletion of residues 505-525 (SEQ ID NOs:12, 33) | 192.4 | 0.508 | 1.3 | 12,400,000 units/mg | 660 | 520 | 24 | 153 | 116 | 24 | 0.9585 |  | 
T15I: His-tagged Phi29 polymerase with T15I mutation only, no background mutation (Table 5 r13) | 416.5 | 0.355 | 3.0 |  |  |  |  |  |  |  |  |  | 
His-E486A-N62D: His-tagged Phi 29 polymerase with E486A and N62D mutations (SEQ ID NOs:9, 30) | 152.5 | 0.441 | 1.0 | 4,133,000 units/mg | 1690 |  |  | 303 | 118 | 15 | 0.9875 |  | 
E375Q: His-tagged Phi29 polymerase with E375Q and background N62D mutation | 531.6 | 0.356 | 6.3 |  |  |  |  |  |  |  |  |  | 
His-E486D-N62D: His-tagged Phi 29 polymerase with E486D and N62D mutations (SEQ ID NOs:10, 31) | 142.0 | 0.467 | 0.9 | 11,634,000 units/mg |  |  |  | 220 | 134 | 15 | 0.9885 |  | 
T15I N62D: His-tagged Phi29 polymerase with T15I and background N62D mutation (Table 5 r22) | 105.9 | 0.726 | 0.0 |  |  |  |  |  |  |  |  |  | 
His-N62D: His-tagged N62D Phi 29 DNA polymerase; parental enzyme [reference compound] | 373.2 | 0.362 | 2.7 |  | 750 | 1020 | 21 | 391 | 237 | 68 | 0.9754 |  | 
GST-N62D: GST-His-S tagged Phi 29 DNA polymerase with exonuclease-reducing N62D mutation (SEQ ID NO:2); parental enzyme [reference compound] | 349.3 | 0.355 | 2.8 |  | 780 | 1200 | 20 | 346 | 236 | 65 | 0.9799 | 1660 | 74
His-K512A-N62D: His-tagged Phi 29 polymerase with K512A and N62D mutations (SEQ ID NOs:11, 32) | 347.7 | 0.335 | 1.4 | 16,073,000 units/mg |  |  |  | 359 | 196 | 34 | 0.9821 |  | 
E375A: His-tagged Phi29 polymerase with E375A and background N62D mutation | 465.9 | 0.383 | 5.8 |  |  |  |  |  |  |  |  |  | 
L384R: His-tagged Phi29 polymerase with L384R and N62D mutations (SEQ ID NOs:8, 29) | 79.6 | 0.768 | −0 |  |  |  |  |  |  |  |  |  | 
